Data: patent publication US20070010465A1 (priority 2005, published 2007)

How the values were obtained:
P-gp = biological target: T1, P-gp (Homo sapiens, UniProt P08183); assay: cellular P-gp function, DiOC2 accumulation assay with flow cytometry on circulating NK cells and leukemic blasts; type: in vivo, Patients with AML
T1 construct: Pharmacodynamic assessments of cellular P-gp function were conducted using an accumulation assay with DiOC2 and flow cytometry; endogenous in cells; host or cells: circulating NK cells and leukemic blasts from AML patients
T1 sequence (P08183 whole entry): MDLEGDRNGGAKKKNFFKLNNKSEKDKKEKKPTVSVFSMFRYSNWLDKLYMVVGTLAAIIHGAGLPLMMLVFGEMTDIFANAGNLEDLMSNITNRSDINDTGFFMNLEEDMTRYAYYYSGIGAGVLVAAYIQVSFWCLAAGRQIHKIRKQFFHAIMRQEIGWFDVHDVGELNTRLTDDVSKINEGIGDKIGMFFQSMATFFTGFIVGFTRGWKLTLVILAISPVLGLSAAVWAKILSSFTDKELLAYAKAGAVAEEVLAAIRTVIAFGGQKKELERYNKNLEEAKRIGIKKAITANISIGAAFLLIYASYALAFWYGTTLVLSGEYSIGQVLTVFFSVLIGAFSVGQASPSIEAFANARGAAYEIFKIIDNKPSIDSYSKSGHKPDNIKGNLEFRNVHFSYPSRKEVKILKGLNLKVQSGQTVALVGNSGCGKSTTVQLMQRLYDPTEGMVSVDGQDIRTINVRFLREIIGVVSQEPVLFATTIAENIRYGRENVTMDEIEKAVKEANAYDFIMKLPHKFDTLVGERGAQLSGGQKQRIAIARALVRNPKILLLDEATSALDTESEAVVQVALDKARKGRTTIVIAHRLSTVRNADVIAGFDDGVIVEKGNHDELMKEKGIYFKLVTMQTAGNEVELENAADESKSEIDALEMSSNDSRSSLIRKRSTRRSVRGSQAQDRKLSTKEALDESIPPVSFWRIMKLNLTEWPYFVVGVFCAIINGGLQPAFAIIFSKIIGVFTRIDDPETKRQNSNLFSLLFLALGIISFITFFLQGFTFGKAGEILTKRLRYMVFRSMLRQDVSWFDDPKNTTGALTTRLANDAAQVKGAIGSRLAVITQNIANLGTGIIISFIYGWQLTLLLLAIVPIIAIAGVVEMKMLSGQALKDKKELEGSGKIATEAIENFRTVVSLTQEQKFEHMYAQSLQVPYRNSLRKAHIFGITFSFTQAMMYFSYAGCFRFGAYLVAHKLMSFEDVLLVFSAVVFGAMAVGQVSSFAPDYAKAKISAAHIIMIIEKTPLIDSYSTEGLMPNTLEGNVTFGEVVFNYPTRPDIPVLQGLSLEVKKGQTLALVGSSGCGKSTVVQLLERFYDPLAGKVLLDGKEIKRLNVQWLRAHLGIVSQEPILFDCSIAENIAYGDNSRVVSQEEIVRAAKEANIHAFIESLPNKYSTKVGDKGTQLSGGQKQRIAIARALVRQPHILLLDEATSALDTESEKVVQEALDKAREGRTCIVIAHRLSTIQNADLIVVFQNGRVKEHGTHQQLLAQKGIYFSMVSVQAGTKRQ
Method: Cytarabine was also administered (100 mg/m^2/day) starting after the first dose of daunorubicin as a continuous intravenous infusion on days 1-7. Blood samples were taken at intervals for pharmacokinetic and pharmacodynamic studies. Pharmacokinetic drug determinations were conducted by HPLC. Pharmacodynamic assessments of cellular P-gp function were conducted using an accumulation assay with DiOC2 and flow cytometry. P-gp function was assessed on circulating natural killer (NK) cells and leukemic blasts. […] Means of 3 patients for each time point are shown.

[1] = several oncolytics, preclinical models; cited from earlier work
[2] = system: acute myelogenous leukemia; conditions: valspodar arm, enrollment halted; cited from earlier work

| time to potent inhibition of P-gp function after start of zosuquidar infusion (P-gp; 700 mg/day continuous intravenous infusion) [h] | duration of inhibition of P-gp functional activity after zosuquidar infusion was halted (P-gp; after 72 hour infusion) | SMILES | pharmacokinetic (PK) interactions with oncolytics [1] | early mortality [2] |
| --- | --- | --- | --- | --- |
| ≤ 2 | at least 12 hours | O[C@@H](COc1cccc2ncccc12)CN1CCN([C@@H]2c3ccccc3[C@@H]3[C@H](c4ccccc42)C3(F)F)CC1 [Zosuquidar] | minimal |  |
|  |  | C/C=C/C[C@@H](C)C(=O)[C@H]1C(=O)N[C@@H](C(C)C)C(=O)N(C)CC(=O)N(C)[C@@H](CC(C)C)C(=O)N[C@@H](C(C)C)C(=O)N(C)[C@@H](CC(C)C)C(=O)N[C@@H](C)C(=O)N[C@H](C)C(=O)N(C)[C@@H](CC(C)C)C(=O)N(C)[C@@H](CC(C)C)C(=O)N(C)[C@@H](C(C)C)C(=O)N1C [valspodar] |  | excessive early mortality |
